Series [1] has as its target T1, CYP1A2 (Homo sapiens, UniProt P05177).
T1 sequence (P05177 1-516): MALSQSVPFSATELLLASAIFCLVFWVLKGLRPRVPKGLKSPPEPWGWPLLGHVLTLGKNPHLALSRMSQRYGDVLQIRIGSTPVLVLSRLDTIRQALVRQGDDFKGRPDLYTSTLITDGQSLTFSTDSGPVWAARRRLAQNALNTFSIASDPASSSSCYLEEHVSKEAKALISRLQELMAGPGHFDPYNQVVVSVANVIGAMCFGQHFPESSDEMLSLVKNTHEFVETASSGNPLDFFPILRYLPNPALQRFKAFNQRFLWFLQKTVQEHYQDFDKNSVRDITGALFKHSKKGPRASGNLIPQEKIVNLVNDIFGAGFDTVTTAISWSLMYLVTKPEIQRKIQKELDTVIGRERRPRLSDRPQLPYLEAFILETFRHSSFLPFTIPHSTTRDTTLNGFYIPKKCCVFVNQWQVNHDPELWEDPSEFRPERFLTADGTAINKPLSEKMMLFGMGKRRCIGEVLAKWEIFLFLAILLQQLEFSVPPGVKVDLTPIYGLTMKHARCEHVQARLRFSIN
Kind of series: biochemical.

For series [2], the target named is T1, CYP1A2. The following applies: for concentrations at which hCYP1A2 was significantly inhibited: p < 0.05 compared to DMSO control, tested 0.005-1.5 μM.
The test system of series [3] is CYP1A2. The settings on record: cited from earlier work.
Series [4] has as its target T1, CYP1A2. Kind of series: Inhibition matrix assay. The format is biochemical.
Series [5] deals with CYP1A2. The following applies: human liver microsomes, ethoxyresorufin as substrate; cited from earlier work.
For series [6], the target named is T1, CYP1A2. Kind of series: Irreversibility of inactivation. It is filed as biochemical.
Series [7] concerns the target T1, CYP1A2. Kind of series: in vitro.
Series [8] deals with T1, CYP1A2. Kind of series: NADPH-dependent and GSH- and SOD-independent inactivation. The settings on record: 8 μM isopimpinellin. It is filed as biochemical.
In series [9] the target is T1, CYP1A2.
The target in series [10] is T1, CYP1A2. Kind of series: Substrate protection. It is filed as biochemical. The following applies: 1.2 μM (KI) isopimpinellin.
The target in series [11] is T1, CYP1A2. As to the kind of experiment: Partition ratio by titration of the enzyme with the inactivator. It is filed as biochemical.
Setting [12] is: human liver microsomes, various substrates.

Molecules are shown by their SMILES. Like-named read-outs stand apart in the source and are kept apart here.

At CYP1A2 [1], `O=c1ccc2ccc3occc3c2o1` [angelicin] had an IC50 of 9600 nM. The “significance of hCYP1A2 inhibition” value at CYP1A2 [2] (p < 0.05, tested 0.5-150 μM) is listed as “significant hCYP1A2 inhibition at all tested concentrations”.

With `Cc1nc2c([nH]1)c(=O)n(C)c(=O)n2Cc1ccco1` [furafylline], in the series with CYP1A2 [3] (furafylline-mediated CYP1A2 inactivation in previous studies), the partition ratio was […]. Besides, in the series on CYP1A2 [3] (setting [12]), the Ki is […] and the kinact is […].

Take `CC(C)=CCOc1c2occc2cc2ccc(=O)oc12` [imperatorin]: the IC50 on CYP1A2 [1] was 20 nM; in the series on CYP1A2 [5], 380 ± 120 nM. The “concentrations at which hCYP1A2 was significantly inhibited” value at CYP1A2 [2] was no less than 5 nM. For the same molecule, the affinity on CYP1A2 [4], expressed as Ki, was 7 nM. The mode of inhibition entry at CYP1A2 [4] (Dixon plots of the kinetics data) is reported as “mixed inhibition”.

Consider `COc1c2ccoc2c(OC)c2oc(=O)ccc12` [isopimpinellin], for which the “activity remaining pre- and post-dialysis” value at CYP1A2 [6] (6.4 μM, one assay with six replicates (assay development)) amounted to 24 ± 2%. The “activity recovered after dialysis” value at CYP1A2 [6] (8 μM, after 20 h of dialysis) is “approximately 21%”. On CYP1A2 [7], this molecule showed a KI (inactivation) of 1200 nM. Also, the kinact on CYP1A2 [7] is 0.00567 s⁻¹. Moreover, at CYP1A2 [7], the kinact/KI is 5000 M⁻¹ s⁻¹. Also, at CYP1A2 [8] (GSH 250 μM), the “effect of GSH on inactivation” value is “GSH failed to protect the hCYP1A2 inactivation”. Further, the “effect of SOD on inactivation” value at CYP1A2 [8] (SOD 1000 units) is “SOD did not prevent hCYP1A2 from inactivation, but rather enhanced the inactivation”. The “effect of NADPH on inactivation” value on CYP1A2 [8] (with and without 250 μM NADPH) is recorded as “the lack of NADPH results in the loss of the inhibitory effect”. Besides, at CYP1A2 [9], the “t1/2 (time required for half the enzyme molecules to be inactivated)” value was 2.05 ± 0.22 min. Moreover, the IC50 against CYP1A2 [1] was 460 nM; in the series on CYP1A2 [5], 860 ± 180 nM. Moreover, the “activity of hCYP1A2” value is recorded as 31.8% at CYP1A2 [10] (0 μM methoxyresorufin in preincubation), 33.9% at CYP1A2 [10] (0.4 μM methoxyresorufin in preincubation), 36.9% on CYP1A2 [10] (2.0 μM methoxyresorufin in preincubation) and 65.4% at CYP1A2 [10] (10 μM methoxyresorufin in preincubation). For the same molecule, the “concentrations at which hCYP1A2 was significantly inhibited” value at CYP1A2 [2] is no less than 50 nM. Further, on CYP1A2 [11] (0.25-64 μM, preincubation 30 min, extrapolated from lower ratio data points), the partition ratio is given as 8. At CYP1A2 [11] (five highest concentration ratios of isopimpinellin to hCYP1A2), the “remaining CYP1A2 activity at high inactivator to enzyme ratios” value was “no remaining CYP1A2 activity”.

Regarding `Cc1cc2cc3c(C)cc(=O)oc3c(C)c2o1` [trioxsalen, reference compound], on CYP1A2 [1], the IC50 was 790 nM. Besides, on CYP1A2 [4], the Ki stood at 100 nM and the mode of inhibition entry was “mixed inhibition”.

Source of the values: PMC6263166 (The protein journal, 2011).
